Source: US8283465B2, “Triazolopyridine compound, and action thereof as prolyl hydroxylase inhibitor or erythropoietin production-inducing agent” (Japan Tobacco Inc., priority 2009, dated 2012)
Counter-ions that a name gives are not always drawn.

How the values were obtained:
[1] = test system: human EPO production, Hep3B cells; test: Human EPO production activity in Hep3B cells (EPO-ELISA of culture supernatant); format: cell-based; conditions: for EC50: Homo sapiens, 24 hr incubation, values consisting solely of numbers, read-out: EC50 (μM) in vitro, human EPO production activity; for production activity (%) at 30 μM in vitro, human EPO: 24 hr, values containing %, relative to maximum production
How it was run: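 Hep3B cells were dosed with compound 24 h after plating and incubated 24 h at 37° C. Secreted EPO in supernatant was measured by ELISA. Values are EC50, or activity (%) at 30 μM scaled between untreated and maximum production.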

human PHD2 = molecular target: T1, human PHD2 (Homo sapiens, UniProt Q9GZT9); test: Measurement of human PHD inhibitory activity (TR-FRET, hydroxylation of HIF-1α partial peptide); format: biochemical; conditions: human PHD2 enzyme 1 nM, 25° C. 30 min, values consisting solely of numbers; read-out: IC50 (μM) in vitro, human PHD inhibitory activity
T1 construct: made in house; host or cells: Sf9 insect cells (baculovirus, pVL1393 vector)
T1 sequence (Q9GZT9 whole entry): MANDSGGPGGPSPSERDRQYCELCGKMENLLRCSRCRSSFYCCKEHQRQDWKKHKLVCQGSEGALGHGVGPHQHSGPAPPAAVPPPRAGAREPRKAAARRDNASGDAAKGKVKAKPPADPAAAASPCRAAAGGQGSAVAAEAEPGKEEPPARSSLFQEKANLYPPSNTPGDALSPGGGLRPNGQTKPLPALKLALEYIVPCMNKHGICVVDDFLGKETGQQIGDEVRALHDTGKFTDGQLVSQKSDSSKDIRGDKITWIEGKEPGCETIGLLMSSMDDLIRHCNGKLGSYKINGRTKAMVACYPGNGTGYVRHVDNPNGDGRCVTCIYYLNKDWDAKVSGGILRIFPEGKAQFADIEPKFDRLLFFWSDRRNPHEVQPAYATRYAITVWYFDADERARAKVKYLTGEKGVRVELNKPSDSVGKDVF
Procedure: Human PHD2 was expressed in insect cell (Sf9 cell). […] The vector and baculovirus were cotransfected into Sf9, and human PHD2 expression baculovirus was isolated in Sf9. By using the virus, human PHD2-expressed cell was prepared. […] The cell lysate was flowed into a column filled with ANTI-FLAG M2 Affinity Gel Freezer Safe (SIGMA), washed, and the N-terminal FLAG-tag-added human PHD2 was eluted and collected.
VBC complex (VHL/Elongin B/Elongin C) was expressed in Escherichia coli (BL21(DE3)). […] After these expression vectors were transfected into Escherichia coli (BL21(DE3)), Escherichia coli was cultured at 37° C. in the medium containing IPTG. The collected Escherichia coli was disrupted by sonication and flowed into a column filled with Ni-NTA superflow (QIAGEN), washed, and the product was eluted and collected. The eluate was flowed into a column filled with Glutathione Sepharose 4B, washed, and the product was eluted and collected. […]
As for human PHD2 enzyme activity, hydroxylation of proline residue contained in the 19 residues of the partial peptide based on the sequence of HIF-1α as a substrate was measured by TR-FRET (Time-Resolved Fluorescence Resonance Energy Transfer) method.
A test compound and a substrate solution were added to a 96-well plate. The reaction was started by addition of a human PHD2 enzyme solution (final concentration 1 nM) to the reaction system. After incubation at 25° C. for 30 min, a stop solution containing EDTA was added, and a VBC complex solution containing europium (Eu) and Xlent was added, and the amount of hydroxylated proline residue was quantified by time-resolved fluorescence spectroscopy. The time-resolved fluorescence in each well was measured, and the human PHD inhibitory activity (%) of the test compound was calculated based on the values of enzyme non-addition well and test compound non-addition well.

| SMILES | EC50 [1] [µM] | IC50 (human PHD2) [µM] | production activity (%) at 30 μM in vitro, human EPO [1] [%] |
| --- | --- | --- | --- |
| O=C(O)CNC(=O)c1c(O)cc(-c2cc(F)cc(F)c2)n2ncnc12 [Example 21, {[5-(3,5-difluorophenyl)-7-hydroxy[1,2,4]triazolo[1,5-a]pyridine-8-carbonyl]amino}acetic acid] | 12 | 0.25 | – |
| O=C(O)CNC(=O)c1c(O)cc(-c2cc(F)cc(Cl)c2)n2ncnc12 [Example 41, {[5-(3-chloro-5-fluorophenyl)-7-hydroxy[1,2,4]triazolo[1,5-a]pyridine-8-carbonyl]amino}acetic acid hydrochloride] | 9.1 | 0.26 | – |
| CCC(CC)c1cc(O)c(C(=O)NCC(=O)O)c2ncnn12 [Example 40, {[5-(1-ethylpropyl)-7-hydroxy[1,2,4]triazolo[1,5-a]pyridine-8-carbonyl]amino}acetic acid hydrochloride] | 17.7 | 0.87 | – |
| O=C(O)CNC(=O)c1c(O)cc(CCC2CCCC2)n2ncnc12 [Example 60, {[5-(2-cyclopentylethyl)-7-hydroxy[1,2,4]triazolo[1,5-a]pyridine-8-carbonyl]amino} acetic acid hydrochloride] | 8.4 | 0.74 | – |
| CC(C)Cc1cc(O)c(C(=O)NCC(=O)O)c2ncnn12 [Example 43, [(7-hydroxy-5-isobutyl[1,2,4]triazolo[1,5-a]pyridine-8-carbonyl)amino]acetic acid] | 23.6 | 0.93 | – |
| O=C(O)CNC(=O)c1c(O)cc(-c2ccc(F)cc2)n2ncnc12 [Example 32, {[5-(4-fluorophenyl)-7-hydroxy[1,2,4]triazolo[1,5-a]pyridine-8-carbonyl]ammino}acetic acid hydrochloride] | 15.6 | 0.38 | – |
| CC(C)CCc1cc(O)c(C(=O)NCC(=O)O)c2ncnn12 [Example 18, {[7-hydroxy-5-(3-methylbutyl)[1,2,4]triazolo[1,5-a]pyridine-8-carbonyl]amino}acetic acid hydrochloride] | 6.1 | 0.48 | – |
| O=C(O)CNC(=O)c1c(O)cc(-c2cc(C(F)(F)F)ccc2F)n2ncnc12 [Example 34, {[5-(2-fluoro-5-trifluoromethyl-phenyl)-7-hydroxy[1,2,4]triazolo[1,5-a]pyridine-8-carbonyl]amino}acetic acid hydrochloride] | 15 | 0.43 | – |
| CC(NC(=O)c1c(O)cc(-c2cc(F)cc(F)c2)n2ncnc12)C(=O)O (stereo not shown) [Example 66, 2-{[5-(3,5-difluorophenyl)-7-hydroxy-[1,2,4]triazolo [1,5-a]pyridine-8-carbonyl]amino} propionic acid hydrochloride] | 21.1 | 1.5 | – |
| O=C(O)CNC(=O)c1c(O)cc(-c2cccc(C(F)(F)F)c2F)n2ncnc12 [Example 55, {[5-(2-fluoro-3-trifluoromethyl-phenyl)-7-hydroxy[1,2,4]triazolo[1,5-a]pyridine-8-carbonyl]amino} acetic acid hydrochloride] | 8.9 | 0.23 | – |
| O=C(O)CNC(=O)c1c(O)cc(CCC2CCC2)n2ncnc12 [Example 54, {[5-(2-cyclobutylethyl)-7-hydroxy[1,2,4]triazolo[1,5-a]pyridine-8-carbonyl]amino} acetic acid hydrochloride] | 4.5 | 0.44 | – |
| O=C(O)CNC(=O)c1c(O)cc(-c2ccc(F)c(C(F)(F)F)c2)c2ncnn12 [Example 106, {[8-(4-fluoro-3-trifluoromethyl-phenyl)-6-hydroxy[1,2,4]triazolo[1,5-a]pyridine-5-carbonyl]amino} acetic acid hydrochloride] | 6 | 0.23 | – |
| O=C(O)CNC(=O)c1c(O)cc(CCc2ccc(F)cc2)c2ncnn12 [Example 90, ({8-[2-(4-fluorophenyl)-ethyl]-6-hydroxy[1,2,4]triazolo[1,5-a]pyridine-5-carbonyl}amino) acetic acid hydrochloride] | 16.6 | 0.29 | – |
| O=C(O)CNC(=O)c1c(O)ccn2c(-c3ccccc3)nnc12 [Example 113, [(7-hydroxy-3-phenyl[1,2,4]triazolo[4,3-a]pyridine-8-carbonyl)amino] acetic acid] | – | 0.56 | 0 |
| Cl.O=C(O)CNC(=O)c1c(O)cc(Cc2ccccc2)c2ncnn12 [Example 86, [(8-benzyl-6-hydroxy[1,2,4]triazolo[1,5-a]pyridine-5-carbonyl)amino] acetic acid hydrochloride] | – | 0.83 | 6 |
| O=C(O)CNC(=O)c1c(O)cc(C2=CCCCC2)c2ncnn12 [Example 93, [(8-cyclohex-1-enyl-6-hydroxy[1,2,4]triazolo[1,5-a]pyridine-5-carbonyl)amino] acetic acid hydrochloride] | 16 | 0.51 | – |
| CC(C)(C)Cc1cc(O)c(C(=O)NCC(=O)O)c2ncnn12 [Example 39, {[5-(2,2-dimethylpropyl)-7-hydroxy[1,2,4]triazolo[1,5-a]pyridine-8-carbonyl]amino}acetic acid hydrochloride] | 22.3 | 1.25 | – |
| O=C(O)CNC(=O)c1c(O)cc(CCc2cc(F)cc(F)c2)c2ncnn12 [Example 109, ({8-[2-(3,5-difluoro-phenyl)-ethyl]-6-hydroxy[1,2,4]triazolo[1,5-a]pyridine-5-carbonyl}amino) acetic acid hydrochloride] | 13.7 | 0.17 | – |
| O=C(O)CNC(=O)c1c(O)cc(CCC2CC2)n2ncnc12 [Example 47, {[5-(2-cyclopropylethyl)-7-hydroxy[1,2,4]triazolo[1,5-a]pyridine-8-carbonyl]amino}acetic acid hydrochloride] | 12 | 0.56 | – |
| O=C(O)CNC(=O)c1c(O)cc(-c2cccc(F)c2)n2ncnc12 [Example 42, {[5-(3-fluorophenyl)-7-hydroxy[1,2,4]triazolo[1,5-a]pyridine-8-carbonyl]amino}acetic acid hydrochloride] | 14.2 | 0.24 | – |
| O=C(O)CNC(=O)c1c(O)cc(-c2ccc(F)cc2F)n2ncnc12 [Example 77, {[5-(2,4-difluorophenyl)-7-hydroxy[1,2,4]triazolo[1,5-a]pyridine-8-carbonyl]amino} acetic acid hydrochloride] | 18.7 | 0.24 | – |
| O=C(O)CNC(=O)c1c(O)cc(CCc2cc(F)cc(F)c2)n2ncnc12 [Example 19, ({5-[2-(3,5-difluorophenyl)ethyl]-7-hydroxy[1,2,4]triazolo[1,5-a]pyridine-8-carbonyl}amino)acetic acid hydrochloride] | 6.6 | 0.26 | – |
| Cc1cc(F)cc(-c2cc(O)c(C(=O)NCC(=O)O)c3ncnn23)c1 [Example 79, {[5-(3-fluoro-5-methylphenyl)-7-hydroxy[1,2,4]triazolo[1,5-a]pyridine-8-carbonyl]amino} acetic acid hydrochloride] | 7.8 | 0.23 | – |
| O=C(O)CNC(=O)c1c(O)cc(-c2cccc(C(F)(F)F)c2)n2ncnc12 [Example 33, {[7-hydroxy-5-(3-trifluoromethyl-phhenyl)[1,2,4]triazolo[1,5-a]pyridine-8-carbonyl]ammino}acetic acid hydrochloride] | 10.1 | 0.46 | – |
| O=C(O)CNC(=O)c1c(O)ccc2cnnn12 [Example 11, [(6-hydroxy[1,2,3]triazolo[1,5-a]pyridine-7-carbonyl)amino]acetic acid] | – | 0.29 | 1 |
| O=C(O)CNC(=O)c1c(O)cc(-c2ccc(C3CC3)cc2F)n2ncnc12 [Example 82, {[5-(4-cyclopropyl-2-fluorophenyl)-7-hydroxy[1,2,4]triazolo[1,5-a]pyridine-8-carbonyl]amino} acetic acid hydrochloride] | 5.4 | 0.15 | – |
| O=C(O)CNC(=O)c1c(O)cc(Cc2ccc(F)cc2)n2ncnc12 [Example 63, acetic acid hydrochloride] | 19.7 | 0.36 | – |
| O=C(O)CNC(=O)c1c(O)cc(-c2cc(F)ccc2F)n2ncnc12 [Example 75, {[5-(2,5-difluorophenyl)-7-hydroxy[1,2,4]triazolo[1,5-a]pyridine-8-carbonyl]amino} acetic acid hydrochloride] | 23.7 | 0.21 | – |
| Cc1ccc(-c2cc(O)c(C(=O)NCC(=O)O)c3ncnn23)s1 [Example 72, {[7-hydroxy-5-(5-methylthiophen-2-yl) [1,2,4]triazolo[1,5-a]pyridine-8-carbonyl]amino} acetic acid hydrochloride] | 4 | 0.4 | – |
